Data as given in patent publication US6841368B1, “Enzymatic production of difructose dianhydride IV from sucrose and relevant enzymes and genes coding for them” (priority 1999, dated 2005).
Like-named read-outs stand apart in the source and are kept apart here.

What was measured:
[1] = test system: levan fructotransferase from A. ureafaciens K2032; assay: Effect of additives on the activity of levan fructotransferase; type: biochemical
Procedure: (§1) The purified enzyme was 51,000 in molecular weight as measured by SDS-PAGE while being measured to have a molecular weight of 96,000 by gel filtration chromatography. Thus, it was identified as being a dimer in aqueous conditions. […] Also, it was of optimal activity at 55° C. […] Whereas being inhibited by Mn^2+, Fe^2+ and Hg^2+, the activity of the enzyme was enhanced by […] and Ca^2+.

[2] = type: biochemical, A. ureafaciens K2032
Procedure: A. ureafaciens K2032 was inoculated in a selective broth containing levan as a major carbon source and cultured at 30° C. for 72 hours in an incubator. Investigation into the growth and levan fructotransferase activity of the bacteria provided the knowledge that the largest enzyme activity is obtained after 10 hours of the incubation. From the culture incubated for 10 hours, the enzyme was purified (FIG. 5). In this regard, the purification was achieved by successively using acetone precipitation, ion exchange chromatography (DEAE 650-M and Mono Q), and gel filtration chromatography, resulting in producing levan fructotransferase with a specific activity of 2269 U/mg protein at an amount of 1.1 mg at a yield of 29.8% (Table 8).
as §1
The newly isolated levan fructotransferase structural gene is composed of 1566 bp which corresponds to 521 aa. The gene of the present invention has a signal sequence consisting of 99 bp (corresponding to 33 aa) at its N-terminus and therefore, the putative completed protein may be about 56 kDa in molecular weight. […] This levan fructotransferase gene is longer by 15 bases (5 amino acids) than is the levan fructotransferase gene derived from A. nicotinovorans GS-9. These two genes are 81% in the homology of amino acid sequence (76% in the homology of base sequence). Consequently, the levan fructotransferase gene of A. ureafaciens K2032 was identified as being new and its base sequence was registered in the GenBank, U.S.A. (Accession No. AF181254).

[3] = additive concentration 1 mM, control = 100
[4] = additive concentration 10 mM, control = 100

With [Ca+2].[Cl-].[Cl-] [CaCl2] the Relative activity [1, 3] was 156%, the Relative activity [1, 4] was 181% and the “Effect on the activity of the enzyme (in words)” value (“Effect on the activity” for short) ([1]; metal ions) was “enhanced”.

O=C(O)CN(CCN(CC(=O)O)CC(=O)O)CC(=O)O [EDTA, reference compound] showed a Relative activity [1, 3] of 95% and a Relative activity [1, 4] of 94%.

For [Cl][Fe][Cl] [FeCl2], the Relative activity [1, 3] was 4% and the “Effect on the activity” value ([1]; metal ions) was “inhibited”.

With [Cl][Hg][Cl] [HgCl2] the Relative activity [1, 3] was 0% and the “Effect on the activity” value ([1]; metal ions) was “inhibited”.

In the case of [Cl-].[K+] [KCl], the Relative activity [1, 3] is reported as 89%.

With [Cl-].[Li+] [LiCl] the Relative activity [1, 3] was 92%.

Work on [Cl-].[Cl-].[Mg+2] [MgCl2] yielded a Relative activity [1, 3] of 63%.

In the case of [Cl][Mn][Cl] [MnCl2], the Relative activity [1, 3] is reported as 9% and the “Effect on the activity” value ([1]; metal ions) is reported as “inhibited”.

Cl.N [NH4Cl] gave a Relative activity [1, 3] of 46%.

In the case of [Cl-].[Na+] [NaCl], the “Effect on the activity” value [1] is reported as “enhanced” and the Relative activity [1] is reported as 125, 142%.

[Cl][Ni][Cl] [NiCl] gave a Relative activity [1, 3] of 74%.

CCCCCCCCCCCCOS(=O)(=O)[O-].[Na+] [SDS, sodium dodecylsulfate, reference compound] gave a Relative activity [1, 3] of 101% and a Relative activity [1, 4] of 32%.

Molecule [Cl-].[Cl-].[Zn+2] [ZnCl2] has a Relative activity [1, 3] of 23%.

B1: levan fructotransferase: enzyme purified from A. ureafaciens K2032 that produces DFA IV from levan; SEQ ID NO: 1 (protein)
chain: MTPAISRRAVLQGAGAGALALIFGGAVPPAARASAPGSLRAVYHMTPPSGWLCDPQRPVTTHGAYQLYYLHSDQNNGPGGWDHASTTDGVAFTHHGTVMPLRPDFPVWSGSAVVGTANTAGFGAGAVVALATQPTDGVRKYQEQYLYWSTDGGFTFTALPDPVIVNTDGRAATTPAEIENAEWFRDPKIHWDTARGEWVCVIGRLRYAAFYTSPNLRDWTLRRNFDYPNHALGGIECPDLFEITADDGTRHWVLAASMDAYGIGLPMTYAYWTGTWDGEQFHADDLTPQWLDWGWDWYAAVTWPSIDAPETKRLAIAWMNNWKYAARDVPTDASDGYNGQNSIVRELRLARQPGGWYTLLSTPVAALTNYVTATTTLPDRTVDGSAVLPWNGRAYEIELDIAWDTATNVGISVGRSPDGTRHTNIGKYGADLYVDRGPSDLAGYSLAPYSRAAAPIDPGARSVHLRILVDTQSVEVFVNAGHTVLSQQVHFAEGDTGISLYTDGGPAHFTGIVVREIGQAI
modifications: Arthrobacter ureafaciens K2032
For B1, the “pH range in which the enzyme maintains its stability” value [2] was 4-10.5, the Specific activity ([2]; after acetone precipitation, ion exchange and gel filtration chromatography) was 2269 U/mg protein and the Remnant activity ([2]; after standing at 50° C. for 30 min) was ≥ 90%. It also gave an Isoelectric point ([2]; levan fructotransferase encoded by lftA) of 5.15 pH.
